The source of these data is patent US20230089914A1 (Clearside Biomedical, Inc., priority 2020, published 2023).

The structures appear in SMILES notation. Converted amounts (≈) assume the structure as drawn. A value given as a limit tells only on which side of the number the result lay.

Broadly, the solubility is the concentration that dissolves in the medium under given conditions. A higher solubility goes with much dissolved substance. The term half-life denotes the time needed for the level to fall by half in the phase considered. As a reminder, the Cmax is the peak of the concentration-time curve.

The nature of data set [1]: Solubility of the API (product profile). The format is physicochemical.
A short description of another data set: in vivo. Particulars: male, Dutch Belted, rabbit, topical or ocular, 4 mg. The source says: The animals' eyes were examined by a board certified veterinary ophthalmologist using a slitlamp biomicroscope and an indirect ophthalmoscope. The exams occurred predose and on the indicated study days prior to sacrifice, as applicable. On specified days, at least two animals/time point were euthanized for the collection of blood (for plasma) and ocular tissues (aqueous humor, vitreous humor, retina, and sclera/choroid-RPE).
For the initial study, the animals were acclimated to study conditions for 16 days prior to dose administration. At dosing, the animals weighed 1721 to 1941 g and were 5 months of age. All animals were housed in individual, suspended, stainless steel cages during acclimation and the test period. Certified Hi-Fiber Rabbit Diet #5325 (PMI) was provided. Water was provided fresh daily, ad libitum. Environmental controls for the animal room were set to maintain a temperature of 16 to 22° C. (Deviation), a relative humidity of 50±20% (Deviation), and a 12-hour light/12-hour dark cycle. […]
The dosing formulation was drawn up into a 1-mL luer-lock syringe using a standard 21-gauge, 1-inch needle; any bubbles were expressed, and the standard needle was replaced by a 30-gauge microneedle 700 μm in length. […] Any dosing observations were recorded. […]

Data set [2] in a line: Ocular distribution and pharmacokinetics after suprachoroidal injection of CLS-AX, 0.03 or 0.1 mg/eye (second study). Format: in vivo, male pigmented Dutch Belted rabbits. The note with it: for tmax: Retina; for half-life: sclera/choroid-RPE (SCR), SCR; for Cmax: topical or ocular, study day 2.

With `CNC(=O)c1ccccc1Sc1ccc2c(/C=C/c3ccccn3)n[nH]c2c1` [Axitinib], the “Solubility (solvent)” value in data set [1] was “DMSO”. Also, the solubility in data set [1] (in water) amounted to 0.2 µg/mL (≈ 0.517 µM). Further, the half-life in the data set “in vivo” is 102 days; in data set [2] (male, Dutch Belted, rabbit, other: suprachoroidal injection, 0.03 mg/eye) it was 10.7 days; in data set [2] (male, Dutch Belted, rabbit, other: suprachoroidal injection, 0.1 mg/eye), 15.8 days. Further, the Cmax in the data set “in vivo” (Cmax) was 857 ng/mL; in data set [2] (male, Dutch Belted, rabbit, retina, 0.03 mg/eye), 4480 ng/g; in data set [2] (male, Dutch Belted, rabbit, retina, 0.1 mg/eye), 6260 ng/g. In addition, the “eyes having quantifiable levels in retina” value in data set [2] (0.03 mg/eye, days 31 and 61) was 1 of 4; in data set [2] (0.1 mg/eye, Days 45 through 66), 1 of 4. The tmax in data set [2] (0.03 mg/eye) and in data set [2] (0.1 mg/eye) was 1 days throughout. Moreover, the concentration at 15 day in data set [2] (male, Dutch Belted, rabbit, other: suprachoroidal injection, retina, 0.03 mg/eye, by day 15, essentially below, read-out: mean retina concentrations (limit of quantitation)) was less than 16.7 ng/g. Besides, in data set [2] (retina, 0.1 vs 0.03 mg/eye), the “mean AUC0-t, higher dose versus lower dose” value turned out to be 1.6 fold. Moreover, in data set [2] (retina, 0.1 vs 0.03 mg/eye), the “mean Cmax, higher dose versus lower dose” value is 1.4 fold.
